Source: publication PMC10333884, “Large‐scale phosphomimetic screening identifies phospho‐modulated motif‐based protein interactions” (Molecular Systems Biology, 2023)
Non-standard residues stand in square brackets, D forms with d. Residues, ends and D or L forms follow the SMILES beside them. pT = C[C@@H](OP(=O)(O)O)[C@H](N)C(=O)O; pS = N[C@@H](COP(=O)(O)O)C(=O)O

Columns and labels:
Format in all cases: binding
[1] = target: T1, SNX27 PDZ (Homo sapiens, UniProt Q96L92); experiment: FP displacement assay, SNX27 PDZ (MBP-tagged); details: for Kd: MBP-tagged domain, probe FITC-SYT16 5 nM, 50 mM sodium phosphate pH 7.4, room temperature, at least three technical replicates, read-out: KD values ± SEM
T1 construct: SNX27_PDZ__Q96L92_40_141; made in house; host or cells: Escherichia coli BL21-Gold(DE3)
Description: For FP, ITC and crystallisation, the tag was removed with the appropriate protease either on beads (0.1 mg/ml thrombin (Cytiva) in PBS, 1 mM dithiothreitol (DTT)) or by dialysis in cleavage buffer (Human Rhinovirus (HRV) 3C protease: 50 mM Tris–HCl pH 7.4, 150 mM NaCl, 1 mM β‐mercaptoethanol), both procedures were overnight. In case of HRV protease cleavage, the tag was separated from the target protein domain by reverse ion metal affinity chromatography using Ni^2+ beads for purification, whereas thrombin was removed using a benzamidine column (Cytiva). Affinity measurements for SNX27 PDZ were performed on the MBP‐tagged construct, as well as PIN1 WW domain on the GST‐tagged construct. For FP and ITC, proteins were dialysed in 50 mM sodium phosphate buffer pH 7.4, 1 mM DTT. For crystallisation of the NTD of clathrin, the protein was further purified by a S200 Sepharose column (Cytiva) using 20 mM Tris–HCl pH 7.4, 150 mM NaCl and 1 mM DTT.
(§1) FP experiments were performed as described previously (Kliche et al, [2021]). Shortly, in order to monitor the binding event, FITC‐labelled peptides were used (excitation 495 nm, emission: 535 nm) and the FP signal was recorded in mP on a SpectraMax iD5 Multi‐Mode Microplate Reader (Molecular Devices) by measuring the emitted light in two angels. The measurements were performed at room temperature and prepared in nonbinding black half area 96‐well microplates (Corning®; 50 μl/well). For measuring direct binding, that is saturation curves, a 1:1 dilution series of protein domain (25 μl/well) was generated in 50 mM sodium phosphate buffer pH 7.4 and the measurement performed with 5 nM FITC‐labelled peptide (25 μl/well). The buffer‐corrected values were subsequently plotted with PRISM and fitted to the quadratic equation (Gianni et al, [2005]).
(§2) The 1:1 dilution series in this experiment was performed with the unlabelled peptide in 50 mM sodium phosphate buffer pH 7.4, so that each well‐contained unlabelled peptide (25 μl) at a certain concentration and pre‐formed complex (25 μl). The KD values of this indirectly monitored binding event were calculated as described previously (Nikolovska‐Coleska et al, [2004]). All measurements were at least in technical triplicates as well as biological duplicates when indicated. An amplitude shift between repeat measurements in the displacement experiments was occasionally observed due to variations in the protein preparations. If that was the case, the “active” protein concentration was back‐calculated according to the quadratic equation from the saturation curves performed in parallel. By comparing the active protein concentrations in the complex between different protein preparations, the amplitude was normalised.

[2] = target: T2, GGA1 VHS (Homo sapiens, UniProt Q9UJY5); experiment: FP displacement assay, GGA1 VHS
T2 construct: GGA1_VHS__Q9UJY5_1_157; GST (cleaved yes); made in house; host or cells: Escherichia coli BL21-Gold(DE3)
T2 sequence (Q9UJY5 1-157): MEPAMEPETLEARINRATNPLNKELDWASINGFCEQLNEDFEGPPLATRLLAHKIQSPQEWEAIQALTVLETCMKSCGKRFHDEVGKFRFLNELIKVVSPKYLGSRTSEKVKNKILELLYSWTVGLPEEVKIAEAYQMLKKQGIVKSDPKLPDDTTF
Description: as §1, §2

[3] = target: T3, Clathrin NTD (Homo sapiens, UniProt Q00610); experiment: FP displacement assay, clathrin NTD
T3 construct: GST (cleaved yes); made in house; host or cells: Escherichia coli BL21-Gold(DE3)
T3 sequence (Q00610 1-364): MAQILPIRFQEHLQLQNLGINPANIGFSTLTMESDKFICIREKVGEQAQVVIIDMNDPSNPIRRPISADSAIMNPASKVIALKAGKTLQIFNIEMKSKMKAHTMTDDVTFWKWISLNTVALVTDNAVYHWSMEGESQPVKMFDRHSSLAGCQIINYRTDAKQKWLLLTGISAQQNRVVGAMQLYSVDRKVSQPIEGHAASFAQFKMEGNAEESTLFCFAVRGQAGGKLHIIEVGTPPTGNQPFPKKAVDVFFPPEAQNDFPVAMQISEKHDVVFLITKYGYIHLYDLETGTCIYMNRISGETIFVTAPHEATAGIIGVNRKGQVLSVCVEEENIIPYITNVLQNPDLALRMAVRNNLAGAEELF
Description: as §1, §2

[4] = target: T2, GGA1 VHS; experiment: ITC, GGA1 VHS; set-up: Ka: unit not given beside the values; details: for Kd: ITC (iTC200), 50 mM sodium phosphate pH 7.4, 1 mM DTT, average of the runs, technical duplicates
[5] = FP displacement, probe FITC-IGF2R 5 nM, 50 mM sodium phosphate pH 7.4, room temperature, at least three technical replicates, read-out: KD values ± SEM
[6] = ITC single run: date 200220, injection 1
[7] = ITC single run: date 200220, injection 2

CC(=O)N[C@@H](CC(N)=O)C(=O)N[C@@H](CC(C)C)C(=O)N[C@@H](CC(C)C)C(=O)N[C@@H](CC(C)C)C(=O)N[C@@H](CCC(=O)O)C(=O)N[C@@H](CCCNC(=N)N)C(=O)N[C@@H](CC(=O)O)C(=O)N[C@H](C(=O)N[C@@H](COP(=O)(O)O)C(=O)N[C@@H](Cc1ccccc1)C(=O)N[C@H](C(=O)N[C@H](C(=O)N[C@@H](C)C(=O)N1CCC[C@H]1C(=O)N[C@@H](CC(=O)O)C(=O)N[C@@H](Cc1ccc(O)cc1)C(N)=O)C(C)C)[C@@H](C)O)[C@@H](C)O [CDC25C30–44 pS] (Ac-NLLLERDT[pS]FTVAPDY-NH2)
Kd [1]: 395 ± 63 µM

CC(=O)N[C@@H](CC(N)=O)C(=O)N[C@@H](CC(C)C)C(=O)N[C@@H](CC(C)C)C(=O)N[C@@H](CC(C)C)C(=O)N[C@@H](CCC(=O)O)C(=O)N[C@@H](CCCNC(=N)N)C(=O)N[C@@H](CC(=O)O)C(=O)N[C@H](C(=O)N[C@@H](CO)C(=O)N[C@@H](Cc1ccccc1)C(=O)N[C@H](C(=O)N[C@H](C(=O)N[C@@H](C)C(=O)N1CCC[C@H]1C(=O)N[C@@H](CC(=O)O)C(=O)N[C@@H](Cc1ccc(O)cc1)C(N)=O)C(C)C)[C@@H](C)O)[C@@H](C)O [CDC25C30–44 wt] (Ac-NLLLERDTSFTVAPDY-NH2)
Kd [1]: 111 ± 17 µM

CSCC[C@H](NC(=O)CNC(C)=O)C(=O)N[C@H](C(=O)N[C@@H](CO)C(=O)N[C@@H](COP(=O)(O)O)C(=O)N[C@H](C(=O)N[C@@H](CO)C(=O)N[C@@H](Cc1ccccc1)C(=O)N[C@@H](CC(N)=O)C(=O)NCC(=O)NCC(=O)N[C@@H](Cc1ccc(O)cc1)C(N)=O)[C@@H](C)O)C(C)C [DAXX606–616 pS] (Ac-GMVS[pS]TSFNGGY-NH2)
IC50 ([1]; Fig 4B, SNX27 PDZ, technical triplicates, read-out: IC50 values of displacement curves, with SEM): 427 ± 39 µM
Kd [1]: 96 ± 5 µM

CSCC[C@H](NC(=O)CNC(C)=O)C(=O)N[C@H](C(=O)N[C@@H](CO)C(=O)N[C@@H](CO)C(=O)N[C@H](C(=O)N[C@@H](CO)C(=O)N[C@@H](Cc1ccccc1)C(=O)N[C@@H](CC(N)=O)C(=O)NCC(=O)NCC(=O)N[C@@H](Cc1ccc(O)cc1)C(N)=O)[C@@H](C)O)C(C)C [DAXX606–616 wt] (Ac-GMVSSTSFNGGY-NH2)
Kd [1]: 300 ± 125 µM

CC(=O)N[C@@H](CCC(=O)O)C(=O)N[C@H](C(=O)N[C@@H](Cc1ccc(O)cc1)C(=O)N[C@@H](Cc1ccc(O)cc1)C(=O)N[C@@H](CC(C)C)C(=O)N[C@@H](CO)C(=O)N[C@@H](CC(=O)O)C(=O)N[C@@H](CO)C(=O)N1CCC[C@H]1C(=O)N[C@@H](CC(C)C)C(=O)N[C@@H](CC(C)C)C(=O)NCC(=O)N1CCC[C@H]1C(=O)N1CCC[C@H]1C(=O)N[C@H](C(=O)NCC(N)=O)C(C)C)[C@@H](C)O [GTSE1_145–160 wt] (Ac-ETYYLSDSPLLGPPVG-NH2)
Kd [2, 5]: 96 ± 8 µM

CC[C@H](C)[C@H](NC(=O)[C@H](CC(C)C)NC(=O)[C@H](CCC(N)=O)NC(=O)CNC(=O)[C@H](Cc1ccc(O)cc1)NC(C)=O)C(=O)N[C@@H](CC(=O)O)C(=O)N[C@@H](CC(C)C)C(=O)N[C@@H](CO)C(=O)N[C@@H](CO)C(=O)N1CCC[C@H]1C(=O)N[C@@H](CC(C)C)C(=O)N[C@H](C(=O)N[C@@H](CCC(N)=O)C(=O)N[C@@H](CC(C)C)C(=O)N[C@@H](CO)C(=O)N1CCC[C@H]1C(=O)N[C@@H](CCC(=O)O)C(N)=O)[C@@H](C)CC [GTSE1_692–707] (Ac-YGQLIDLSSPLIQLSPE-NH2)
Kd [3]: ~100 µM

CC[C@H](C)[C@H](NC(=O)[C@H](CC(C)C)NC(=O)[C@H](CC(N)=O)NC(=O)CNC(=O)CNC(=O)[C@H](Cc1ccc(O)cc1)NC(C)=O)C(=O)N[C@H](C(=O)N[C@@H](Cc1ccccc1)C(=O)N[C@@H](COP(=O)(O)O)C(=O)N1CCC[C@H]1C(=O)N[C@@H](CC(C)C)C(=O)N[C@@H](CCC(N)=O)C(=O)N1CCC[C@H]1C(=O)NCC(=O)N[C@@H](CCC(=O)O)C(=O)N[C@@H](Cc1ccccc1)C(=O)O)[C@@H](C)O [HURP832–846 pS Cterm] (Ac-YGGNLITF[pS]PLQPGEF-OH)
Kd [3]: < 3 µM
IC50 ([3]; Fig 6A, clathrin NTD, FP displacement, two to three technical replicates per protein preparation, 2 independent preparations, read-out: IC50 values of displacement curves, with SEM): 11 ± 4 µM

CC(=O)N[C@@H](CC(=O)O)C(=O)N[C@@H](CC(C)C)C(=O)N[C@@H](CC(C)C)C(=O)N[C@H](C(=O)N[C@@H](CO)C(=O)N1CCC[C@H]1C(=O)N[C@@H](CC(=O)O)C(=O)N[C@H](C(=O)NCC(=O)N[C@@H](CC(C)C)C(=O)N[C@@H](CC(C)C)C(=O)N[C@@H](CCCCN)C(=O)N[C@@H](CC(C)C)C(=O)N[C@@H](C)C(=O)N[C@@H](CO)C(=O)N[C@@H](Cc1ccc(O)cc1)C(N)=O)C(C)C)[C@@H](C)OP(=O)(O)O [JUN59–73 pS] (Ac-DLL[pT]SPDVGLLKLASY-NH2)
Kd [2]: 1900 µM

CC(=O)N[C@@H](CC(=O)O)C(=O)N[C@@H](CC(C)C)C(=O)N[C@@H](CC(C)C)C(=O)N[C@H](C(=O)N[C@@H](CO)C(=O)N1CCC[C@H]1C(=O)N[C@@H](CC(=O)O)C(=O)N[C@H](C(=O)NCC(=O)N[C@@H](CC(C)C)C(=O)N[C@@H](CC(C)C)C(=O)N[C@@H](CCCCN)C(=O)N[C@@H](CC(C)C)C(=O)N[C@@H](C)C(=O)N[C@@H](CO)C(=O)N[C@@H](Cc1ccc(O)cc1)C(N)=O)C(C)C)[C@@H](C)O [JUN59–73 wt] (Ac-DLLTSPDVGLLKLASY-NH2)
Kd [2]: 470 ± 50 µM

CC[C@H](C)[C@H](NC(=O)[C@H](CC(=O)O)NC(=O)[C@H](CC(=O)O)NC(=O)[C@H](CO)NC(=O)[C@@H](NC(=O)[C@@H]1CCCN1C(=O)[C@H](CO)NC(=O)[C@H](CCCCN)NC(=O)[C@H](Cc1ccc(O)cc1)NC(C)=O)[C@@H](C)O)C(=O)N[C@@H](COP(=O)(O)O)C(=O)N[C@@H](CC(C)C)C(=O)N[C@@H](CC(C)C)C(=O)N[C@@H](Cc1c[nH]cn1)C(=O)N[C@@H](CCC(=O)O)C(=O)N[C@@H](CO)C(=O)N[C@@H](CCC(N)=O)C(=O)N[C@@H](CO)C(N)=O [RNF11_6–21 pS] (Ac-YKSPTSDDI[pS]LLHESQS-NH2)
Kd [2, 5]: 31 ± 3 µM
Kd [4]: 27 µM
Ka [4, 6]: 35100
Ka [4, 7]: 38900

CC[C@H](C)[C@H](NC(=O)[C@H](CC(=O)O)NC(=O)[C@H](CC(=O)O)NC(=O)[C@H](CO)NC(=O)[C@@H](NC(=O)[C@@H]1CCCN1C(=O)[C@H](CO)NC(=O)[C@H](CCCCN)NC(=O)[C@H](Cc1ccc(O)cc1)NC(C)=O)[C@@H](C)O)C(=O)N[C@@H](CO)C(=O)N[C@@H](CC(C)C)C(=O)N[C@@H](CC(C)C)C(=O)N[C@@H](Cc1c[nH]cn1)C(=O)N[C@@H](CCC(=O)O)C(=O)N[C@@H](CO)C(=O)N[C@@H](CCC(N)=O)C(=O)N[C@@H](CO)C(N)=O [RNF11_6–21 wt] (Ac-YKSPTSDDISLLHESQS-NH2)
Kd [2, 5]: 420 ± 50 µM
Kd [4]: 919 µM
Ka [4, 6]: 2030
Ka [4, 7]: 744
